Consider 7 compounds from patent US20240335462A1, “SULFUR/PHOSPHORUS-CONTAINING ARYL COMPOUND AND APPLICATION THEREOF” (MEDSHINE DISCOVERY INC., priority 2021, published 2024).

Type in all cases: cell-based
In assay [1] the test system is Ba/F3-TEL-TYK2 cells. Description: Proliferation of Ba/F3-TEL-TYK2 cells (CellTiter-Glo). The following applies: 72 hours, read-out: Half maximal inhibitory concentration IC50 for cells Ba/F3-TEL-TYK2. An excerpt: Adenosine triphosphate (ATP) serves as a universal energy carrier in various life processes, representing the smallest unit of energy storage and transfer. The CellTiter-Glo™ Luminescent Cell Viability Assay Kit utilizes luciferase as a detection agent. During the luminescent process, luciferase requires the participation of ATP. By adding CellTiter-Glo™ reagent to the cell culture medium and measuring the luminescence, the light signal was directly proportional to the amount of ATP in the system, and ATP was positively correlated with the number of viable cells. Therefore, cell proliferation can be detected by measuring ATP content using the CellTiter-Glo kit. In this test, the cell lines used were Ba/F3-FL-TYK2-E957D and Ba/F3-TEL-TYK2. Ba/F3-FL-TYK2-E957D cells can stably express the exogenously introduced human TYK2-E957D gene, and the TYK2-E957D gene sequence contains both JH1 and JH2 domains. On the other hand, Ba/F3-TEL-TYK2 cells can stably express the exogenously introduced human TEL-TYK2 gene, and the TEL-TYK2 gene sequence contains only the JH1 domain of TYK2.
The cell lines were cultured in an incubator at 37° C. with 5% CO2. Regular passaging was performed, and cells in the logarithmic growth phase were selected for plating.
• a) The test compounds were prepared into a 10 mM solution with DMSO, and then diluted to 0.3 or 1 mM with DMSO. • b) Preparation of 1000× compound storage plate (tube): The compounds were 3-fold serially diluted from the highest concentration to the lowest concentration, creating 9 different concentrations. • c) Preparation of 20× compound working solution: 49 μL of cell culture medium was added to a flat-bottomed 96-well transparent drug plate. From the 1000× compound storage plate, 1 μL of the compound was pipetted into the cell culture medium in the 96-well transparent drug plate. In the solvent control, 1 μL of DMSO was added. After the compound or DMSO was added, the mixture was homogenized using a multi-channel pipette.
• a) Cells were stained with trypan blue and viable cells were counted to ensure a cell viability of 90% or more. • b) 95 μL of cell suspension (2000 cells/well) was added to each well of the compound assay cell plate, and cell-free culture medium containing 0.1% DMSO was added to the Min control wells. • c) Administration in the compound assay cell plate: 5 μL of 20× compound working solution was added to the cell culture plate. 5 μL of DMSO-cell culture medium mixture was added to the Max control wells. The final concentration of DMSO was 0.1%. • d) The culture plate was then incubated in an incubator at 37° C. with 5% CO2 for 72 hours.
The following steps were conducted in accordance with the instructions of the Promega CellTiter-Glo Luminescent Cell Viability Assay Kit (Promega-G7573). • a) CellTiter-Glo buffer was thawed and brought to room temperature. • b) CellTiter-Glo substrate was also brought to room temperature. • c) CellTiter-Glo buffer was added to a bottle of CellTiter-Glo substrate to dissolve the substrate, thereby preparing CellTiter-Glo working solution. • d) The mixture was slowly vortexed and shaken to be fully dissolved. • e) The cell culture plate was removed and allowed to equilibrate to room temperature for 10 minutes. • f) 50 μL (equal to half the volume of cell culture medium in each well) of CellTiter-Glo working solution was added to each well. • g) The culture plate was shaken on an orbital shaker for 2 minutes to induce cell lysis. • h) The plate was then left at room temperature for 10 minutes to stabilize the luminescent signal. • i) The luminescent signal was detected using a SpectraMax Paradigm plate reader.
Data analysis was conducted using GraphPad Prism 5.0 software. Nonlinear S-curve regression was employed to fit the data and generate dose-response curves. From these curves, the IC50 values were calculated.
Background: In ATP-based viability assays light output follows the ATP content of the culture.

Assay [2] deals with JAK1/2 signaling pathway (IL-6/pSTAT1). In words: IL-6-stimulated pSTAT1 in human PBMC (flow cytometry). The following applies: CD4-positive cells. As for the experimental part:
(§1) The purpose of this experiment was to detect the inhibitory effect of the compounds on cytokine-activated JAK-STAT signaling pathways in human peripheral blood mononuclear cells (PBMC).
(§2) • a) PBMCs frozen in liquid nitrogen were thawed in a 37° C. water bath, and culture medium was added. The mixture was then centrifuged at 320 g for 3 minutes. • b) Cells were resuspended in culture medium, counted, and the cell concentration was adjusted to 5×10^5 cells/mL with culture medium. Subsequently, the cell suspension was inoculated into […] 96-well round-bottom plates, with 200 μL per well. The plates were incubated at 37° C. with 5% CO2 for 90 minutes. • c) Different concentrations of the test compound (starting at 2 μM, 5-fold serial dilution, a total of 8 concentrations) were added, followed by incubation at 37° C. with 5% CO2 for 30 minutes. • d) IL-6 (final concentration at 20 ng/mL) was added to the first round-bottom plate and incubated at 37° C. with 5% CO2 for 15 minutes. • e) IFNα (final concentration at 1000 U/mL) was added to the second round-bottom plate and incubated at 37° C. with 5% CO2 for 15 minutes. • f) IL-2 (final concentration at 4 ng/mL) was added to the third round-bottom plate and incubated at 37° C. with 5% CO2 for 15 minutes. • g) GM-CSF (final concentration at […]) was added to the fourth round-bottom plate and incubated at 37° C. with 5% CO2 for 15 minutes. • h) Cells were centrifuged at 320 g for 3 minutes, and each well was washed once with 200 μL of staining solution. • i) 50 μL of staining solution containing human CD33 antibody was added to each well of the GM-CSF-stimulated culture plate, and 50 μL of staining solution containing CD4 antibody was added to the remaining three culture plates. The staining was performed at 4° C. for 30 minutes. The cells were washed twice with the staining solution. • j) 100 μL of fixation buffer was added to each well, and the cells were fixed at 4° C. for 15 minutes. The cells were washed once with the staining solution. • k) 100 μL of permeabilization buffer was added to each well, and the cells were permeabilized at 4° C. for 20 minutes. The cells were washed twice with the staining solution. • l) 50 μL of staining solution containing human pSTAT1 antibody was added to each well of the IL-6 and IFN-α-stimulated culture plates, and 50 μL of staining solution containing human pSTAT5 antibody was added to each well of the IL-2 and GM-CSF-stimulated culture plates. The staining was performed at room temperature for 15 minutes. The cells were washed twice with the staining solution. • m) The cells were resuspended in 150 μL of staining solution. • n) The fluorescence intensity of pSTAT1 (stimulated by IL-6 and IFN-α) or pSTAT5 (stimulated by IL-2) in CD4-positive cells was detected using flow cytometer. The fluorescence intensity of pSTAT5 (stimulated by GM-CSF) in CD33-positive cells was also detected.
(§3) Data analysis was performed using Flowjo software to determine the IC50 of the compounds.

In assay [3] the test system is TYK2 signaling pathway (IFN-α/pSTAT1). Description: IFN-α-stimulated pSTAT1 in human PBMC (flow cytometry). Particulars: CD4-positive cells. Here is the method: as §1, §2, §3

Turning to `CNC(=O)c1nnc(NC(=O)C2CC2)cc1Nc1cccc(-c2ncc(S(=N)(=O)C(C)C)cn2)c1OC` (single isomer, unassigned) [WX-011A], the IC50 in assay [1] was more than 10000 nM; in assay [2], 87 nM; in assay [3], 2.6 nM.

`CNC(=O)c1cnc(NC(=O)C2CC2)cc1Nc1cccc(-c2ncc(S(=O)(=O)C(C)C)cn2)c1OC` [WX-019]: the IC50 in assay [1] is more than 10000 nM; in assay [2], 99.7 nM; in assay [3] it was 1.5 nM.

In the case of `CNC(=O)c1nnc(NC(=O)C2CC2)cc1Nc1cccc(-c2ccc(P(=O)(C3CC3)C3CC3)cn2)c1OC` [WX-021], the IC50 in assay [1] is more than 10000 nM; in assay [2], 63.4 nM; in assay [3], 2.1 nM.

Take `CNC(=O)c1nnc(NC(=O)C2CC2)cc1Nc1cccc(-c2ncc(S(=N)(=O)C(C)C)cn2)c1OC` (single isomer, unassigned) [WX-011B]: the IC50 in assay [1] is more than 10000 nM; in assay [2], 72.5 nM; in assay [3], 2.4 nM.

For the compound `CNC(=O)c1nnc(NC(=O)C2CC2)cc1Nc1cccc(-c2ccc(S(=N)(=O)C(C)C)cn2)c1OC` (single isomer, unassigned) [WX-012A], the values for the IC50 in assay [1], in assay [2] and in assay [3] were more than 10000 nM, 52.4 nM and 2 nM, respectively.

Turning to `CNC(=O)c1cnc(NC(=O)C2CC2)cc1Nc1cccc(-c2ccc(S(=O)(=O)C(C)C)cn2)c1OC.Cl` [Hydrochloride of WX-020], the IC50 in assay [1] is more than 10000 nM; in assay [2], 164 nM; in assay [3] it was 1.3 nM.

Consider `CNC(=O)c1nnc(NC(=O)C2CC2)cc1Nc1cccc(-c2ccc(S(=N)(=O)C(C)C)cn2)c1OC` (single isomer, unassigned) [WX-012B], for which the IC50 in assay [1] is more than 10000 nM; in assay [2] it was 32.5 nM; in assay [3], 1.5 nM.
